According to US5292733A, “Cephalosporin compounds” (Lucky Limited, priority 1991, dated 1994):
In brackets after ≈: the same amount, converted by molar mass.

Columns and labels:
Assay in all cases: Antibacterial activity MIC, two-fold agar dilution
Format in all cases: cell-based
[1] = system: Acinetobacter calcoaceticus ATCC 15473; conditions: ATCC15473; Acinetobacter calcoaceticus ATCC 15473; Muller-Hinton agar, 37° C., 20 hours; read-out: Antibacterial Activity MIC
Method in brief: (§1)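 Inoculum: 2 μl, 10^7 CFU per ml. Medium: Muller-Hinton agar containing compound in two-fold serial dilutions. Conditions: 37° C., 20 hours; endpoint MIC.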

[2] = system: Bacillus cereus ATCC 11778; conditions: ATCC11778; Bacillus cereus ATCC 11778; Muller-Hinton agar, 37° C., 20 hours; read-out: Antibacterial Activity MIC
Method in brief: as §1

[3] = system: Bacillus megaterium ATCC 9885; conditions: Priestia megaterium, ATCC9885; Bacillus megaterium ATCC 9885; Muller-Hinton agar, 37° C., 20 hours; read-out: Antibacterial Activity MIC
Method in brief: as §1

[4] = system: Citrobacter freundii ATCC 8090; conditions: ATCC8090; Citrobacter freundii ATCC 8090; Muller-Hinton agar, 37° C., 20 hours; read-out: Antibacterial Activity MIC
Method in brief: as §1

[5] = system: Enterobacter aerogenes ATCC 29751; conditions: Klebsiella aerogenes, ATCC29751; Enterobacter aerogenes ATCC 29751; Muller-Hinton agar, 37° C., 20 hours; read-out: Antibacterial Activity MIC
Method in brief: as §1

[6] = system: Enterobacter cloacae ATCC 27508; conditions: ATCC27508; Enterobacter cloacae ATCC 27508; Muller-Hinton agar, 37° C., 20 hours; read-out: Antibacterial Activity MIC
Method in brief: as §1

[7] = system: Escherichia coli ATCC 10536; conditions: ATCC10536, Muller-Hinton agar, 37° C., 20 hours
Method in brief: as §1

[8] = system: Escherichia coli ATCC 25922; conditions: ATCC25922, Muller-Hinton agar, 37° C., 20 hours
Method in brief: as §1

[9] = system: Klebsiella pneumoniae ATCC 10031; conditions: ATCC10031; Klebsiella pneumoniae ATCC 10031; Muller-Hinton agar, 37° C., 20 hours; read-out: Antibacterial Activity MIC
Method in brief: as §1

[10] = system: Micrococcus luteus ATCC 9341; conditions: ATCC9341; Micrococcus luteus ATCC 9341; Muller-Hinton agar, 37° C., 20 hours; read-out: Antibacterial Activity MIC
Method in brief: as §1

[11] = system: Morganella morganii ATCC 8076h; conditions: ATCC8076H, Muller-Hinton agar, 37° C., 20 hours
Method in brief: as §1

[12] = system: Proteus mirabilis ATCC 25933; conditions: ATCC25933; Proteus mirabilis ATCC 25933; Muller-Hinton agar, 37° C., 20 hours; read-out: Antibacterial Activity MIC
Method in brief: as §1

[13] = system: Proteus vulgaris ATCC 6059; conditions: ATCC6059; Proteus vulgaris ATCC 6059; Muller-Hinton agar, 37° C., 20 hours; read-out: Antibacterial Activity MIC
Method in brief: as §1

[14] = system: Providencia rettgeri ATCC 9250; conditions: ATCC9250, Muller-Hinton agar, 37° C., 20 hours
Method in brief: as §1

[15] = system: Pseudomonas aeruginosa ATCC 10145; conditions: ATCC10145; Pseudomonas aeruginosa ATCC 10145; Muller-Hinton agar, 37° C., 20 hours; read-out: Antibacterial Activity MIC
Method in brief: as §1

[16] = system: Pseudomonas aeruginosa ATCC 25619; conditions: ATCC25619; Pseudomonas aeruginosa ATCC 25619; Muller-Hinton agar, 37° C., 20 hours; read-out: Antibacterial Activity MIC
Method in brief: as §1

[17] = system: Pseudomonas aeruginosa ATCC 27853; conditions: ATCC27853; Pseudomonas aeruginosa ATCC 27853; Muller-Hinton agar, 37° C., 20 hours; read-out: Antibacterial Activity MIC
Method in brief: as §1

[18] = system: Salmonella typhimurium ATCC 14028; conditions: Salmonella enterica; Salmonella typhimurium ATCC 14028; Muller-Hinton agar, 37° C., 20 hours; read-out: Antibacterial Activity MIC
Method in brief: as §1

[19] = system: Serratia marcescens ATCC 27117; conditions: ATCC27117; Serratia marcescens ATCC 27117; Muller-Hinton agar, 37° C., 20 hours; read-out: Antibacterial Activity MIC
Method in brief: as §1

[20] = system: Shigella flexneri ATCC 11836; conditions: ATCC11836, Muller-Hinton agar, 37° C., 20 hours
Method in brief: as §1

[21] = system: Shigella sonnei ATCC 11060; conditions: ATCC11060, Muller-Hinton agar, 37° C., 20 hours
Method in brief: as §1

[22] = system: Staphylococcus aureus ATCC 10537; conditions: ATCC10537; Staphylococcus aureus ATCC 10537; Muller-Hinton agar, 37° C., 20 hours; read-out: Antibacterial Activity MIC
Method in brief: as §1

[23] = system: Staphylococcus aureus ATCC 6538p; conditions: ATCC6538P; Staphylococcus aureus ATCC 6538p; Muller-Hinton agar, 37° C., 20 hours; read-out: Antibacterial Activity MIC
Method in brief: as §1

[24] = system: Staphylococcus epidermidis ATCC 12228; conditions: ATCC12228; Staphylococcus epidermidis ATCC 12228; Muller-Hinton agar, 37° C., 20 hours; read-out: Antibacterial Activity MIC
Method in brief: as §1

[25] = system: Streptococcus faecalis ATCC 29212; conditions: Enterococcus faecalis, ATCC29212; Streptococcus faecalis ATCC 29212; Muller-Hinton agar, 37° C., 20 hours; read-out: Antibacterial Activity MIC
Method in brief: as §1

CC[n+]1c(SCC2=C(C(=O)[O-])N3C(=O)[C@@H](NC(=O)/C(=N\OC)c4csc(N)n4)[C@H]3SC2)cc(N)nc1N [Compound I-8, (6R,7R)-7-[(Z)-2-(2-aminothiazol-4-yl)-2-(methoxyimino)acetamido]-3-(2,6-diamino-3-ethylpyrimidinium-4-yl)thiomethyl-3-cephem-4-carboxylate]
MIC [1]: 8 µg/mL (≈ 14.1 µM)
MIC [2]: 64 µg/mL (≈ 113 µM)
MIC [3]: 0.13 µg/mL (≈ 0.23 µM)
MIC [4]: 0.13 µg/mL (≈ 0.23 µM)
MIC [5]: 0.5 µg/mL (≈ 0.884 µM)
MIC [6]: 0.016 µg/mL (≈ 0.0283 µM)
MIC [7]: 0.063 µg/mL (≈ 0.111 µM)
MIC [8]: 0.063 µg/mL (≈ 0.111 µM)
MIC [9]: 0.016 µg/mL (≈ 0.0283 µM)
MIC [10]: 0.063 µg/mL (≈ 0.111 µM)
MIC [11]: 0.016 µg/mL (≈ 0.0283 µM)
MIC [12]: 0.031 µg/mL (≈ 0.0548 µM)
MIC [13]: 0.063 µg/mL (≈ 0.111 µM)
MIC [14]: ≤ 0.008 µg/mL
MIC [15]: 32 µg/mL (≈ 56.6 µM)
MIC [16]: 2 µg/mL (≈ 3.54 µM)
MIC [17]: 16 µg/mL (≈ 28.3 µM)
MIC [18]: 0.5 µg/mL (≈ 0.884 µM)
MIC [19]: 0.5 µg/mL (≈ 0.884 µM)
MIC [20]: 0.063 µg/mL (≈ 0.111 µM)
MIC [21]: 0.5 µg/mL (≈ 0.884 µM)
MIC [22]: 1 µg/mL (≈ 1.77 µM)
MIC [23]: 2 µg/mL (≈ 3.54 µM)
MIC [24]: 0.5 µg/mL (≈ 0.884 µM)
MIC [25]: > 128 µg/mL

CO/N=C(\C(=O)N[C@@H]1C(=O)N2C(C(=O)O)=C(COC(C)=O)CS[C@H]12)c1csc(N)n1 [Cefotaxime, reference compound]
MIC [1]: 8 µg/mL (≈ 17.6 µM)
MIC [2]: 64 µg/mL (≈ 141 µM)
MIC [3]: 0.063 µg/mL (≈ 0.138 µM)
MIC [4]: 0.063 µg/mL (≈ 0.138 µM)
MIC [5]: 2 µg/mL (≈ 4.39 µM)
MIC [6]: ≤ 0.008 µg/mL
MIC [7]: 0.031 µg/mL (≈ 0.0681 µM)
MIC [8]: 0.031 µg/mL (≈ 0.0681 µM)
MIC [9]: ≤ 0.008 µg/mL
MIC [10]: 0.031 µg/mL (≈ 0.0681 µM)
MIC [11]: ≤ 0.008 µg/mL
MIC [12]: 0.031 µg/mL (≈ 0.0681 µM)
MIC [13]: 0.031 µg/mL (≈ 0.0681 µM)
MIC [14]: ≤ 0.008 µg/mL
MIC [15]: 16 µg/mL (≈ 35.1 µM)
MIC [16]: 1 µg/mL (≈ 2.2 µM)
MIC [17]: 8 µg/mL (≈ 17.6 µM)
MIC [18]: 0.13 µg/mL (≈ 0.285 µM)
MIC [19]: 0.13 µg/mL (≈ 0.285 µM)
MIC [20]: 0.016 µg/mL (≈ 0.0351 µM)
MIC [21]: 0.063 µg/mL (≈ 0.138 µM)
MIC [22]: 1 µg/mL (≈ 2.2 µM)
MIC [23]: 4 µg/mL (≈ 8.78 µM)
MIC [24]: 1 µg/mL (≈ 2.2 µM)
MIC [25]: > 128 µg/mL
